Data reported in patent publication US5043332A, “Novel 11β-substituted -19-nor-steriods” (priority 1981, dated 1991).
Like-named read-outs stand apart in the source and are kept apart here.

Legend:
[1] = target: T1, Gluocorticoid receptor of thymus of rats (Rattus norvegicus, UniProt P06536); test: Glucocorticoid receptor binding (displacement of tritiated dexamethasone)
T1 construct: The thymus were removed and homogenized at 0° C; from tissue; host or cells: rat thymus, 105,000 g supernatant (adrenalectomized male Sprague-Dawley rats)
T1 sequence (P06536 1-795): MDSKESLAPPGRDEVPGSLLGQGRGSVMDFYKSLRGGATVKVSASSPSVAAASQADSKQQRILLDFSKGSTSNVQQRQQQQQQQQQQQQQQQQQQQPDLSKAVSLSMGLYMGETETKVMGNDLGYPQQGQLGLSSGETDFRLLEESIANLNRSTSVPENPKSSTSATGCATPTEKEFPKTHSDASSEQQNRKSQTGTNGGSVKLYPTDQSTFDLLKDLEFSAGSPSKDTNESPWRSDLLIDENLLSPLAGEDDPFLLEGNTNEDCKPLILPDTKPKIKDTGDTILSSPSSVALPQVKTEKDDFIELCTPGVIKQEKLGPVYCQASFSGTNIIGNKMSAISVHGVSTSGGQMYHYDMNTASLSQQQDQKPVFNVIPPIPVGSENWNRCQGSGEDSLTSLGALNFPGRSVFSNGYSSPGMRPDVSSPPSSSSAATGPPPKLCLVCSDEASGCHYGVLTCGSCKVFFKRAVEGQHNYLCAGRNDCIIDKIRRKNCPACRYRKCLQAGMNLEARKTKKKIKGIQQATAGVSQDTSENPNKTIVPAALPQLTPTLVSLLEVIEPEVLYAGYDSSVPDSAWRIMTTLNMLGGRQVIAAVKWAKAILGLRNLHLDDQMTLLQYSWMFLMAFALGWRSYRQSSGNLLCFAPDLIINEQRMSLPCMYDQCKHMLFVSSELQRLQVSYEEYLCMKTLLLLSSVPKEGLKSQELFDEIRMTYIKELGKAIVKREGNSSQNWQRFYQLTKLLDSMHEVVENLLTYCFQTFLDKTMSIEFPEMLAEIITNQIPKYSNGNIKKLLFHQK

[2] = tested on: thymocytes of surrenalectomized rats; test: Antiglucocorticoidal activity, incorporation of tritiated uridine in thymocytes; type: cell-based; conditions: for inhibition at 0.1 µM: 5 × 10^-8 M dexamethasone + test product 10^-7 M; for inhibition at 0.01 µM: 5 × 10^-8 M dexamethasone + test product 10^-8 M; for opposition to the effect of dexamethasone on tritiated uridine incorporation (in words): with 5×10^-8 M dexamethasone
[3] = target: T2, Estrogen receptor of uterus of mice (Mus musculus, UniProt P19785); test: Estrogen receptor binding (displacement of tritiated estradiol)
T2 construct: the uterus were removed and homogenized at 0° C; from tissue; host or cells: mouse uterus, 105,000 g supernatant (immature females 18 to 21 days old)
T2 sequence (P19785 1-599): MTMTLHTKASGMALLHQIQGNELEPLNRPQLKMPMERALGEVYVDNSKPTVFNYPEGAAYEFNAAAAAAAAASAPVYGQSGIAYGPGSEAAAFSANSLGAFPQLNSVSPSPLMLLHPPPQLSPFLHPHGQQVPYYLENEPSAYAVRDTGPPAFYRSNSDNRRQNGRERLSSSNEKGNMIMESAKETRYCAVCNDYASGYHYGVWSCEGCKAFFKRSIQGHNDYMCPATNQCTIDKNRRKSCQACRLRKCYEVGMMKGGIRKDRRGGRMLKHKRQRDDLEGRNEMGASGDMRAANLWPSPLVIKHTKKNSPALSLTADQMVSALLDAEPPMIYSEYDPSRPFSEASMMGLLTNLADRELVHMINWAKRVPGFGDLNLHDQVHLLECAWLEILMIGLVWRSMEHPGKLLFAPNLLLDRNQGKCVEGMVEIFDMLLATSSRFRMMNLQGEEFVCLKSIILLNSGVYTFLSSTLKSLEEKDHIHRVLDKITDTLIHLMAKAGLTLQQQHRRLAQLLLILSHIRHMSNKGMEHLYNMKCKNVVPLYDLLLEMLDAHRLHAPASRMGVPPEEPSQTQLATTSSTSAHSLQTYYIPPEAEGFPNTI
Method in brief: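 Uteri from immature female mice aged 18 to 21 days were homogenized at 0° C. in Tris-saccharose buffer (pH 7.4, 1 g tissue per 25 ml) and ultracentrifuged at 105,000 g for 90 minutes. Aliquots were incubated at 0° C. with a fixed concentration of tritiated estradiol and increasing concentrations (0 to 1000×10^-9 M) of cold estradiol or test compound. Bound tritiated estradiol was measured by carbon-dextran adsorption, and relative binding affinity (ARL) was derived from the concentrations giving 50% inhibition.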

[4] = Rattus norvegicus, Thymocyte, second table, read-out: % of inhibition of effect of Dexamethasone
[5] = Rattus norvegicus, Thymocyte, read-out: % inhibition of effect of Dexamethasone

## C#C[C@@]1(O)CC[C@H]2[C@@H]3CCC4=CC(=O)CCC4=C3[C@@H](c3ccc(N(C)C)cc3)C[C@@]21C [Example 21, 11β-[4-(N,N-dimethylamino)-phenyl]-17β-ethynyl-Δ^4,9-estradiene-17α-ol-3-one]
[1]; second table, incubation 4 H at 0° C.
  relative affinity of tieing (ARL), Glucocorticoid: 171
[1]; second table, incubation 24 H at 0° C.
  relative affinity of tieing (ARL), Glucocorticoid: 118
[2]; Rattus norvegicus, Thymocyte, second table, 5 × 10^-8 M dexamethasone + test product 10^-6 M, read-out: % of inhibition of effect of Dexamethasone
  inhibition at 1 µM: 83%
[2]; [4]
  inhibition at 0.1 µM: 15%
  inhibition at 0.01 µM: 5%
[2]
  opposition to the effect of dexamethasone on tritiated uridine incorporation (in words): opposed this effect
[3]; second table, incubation 2 H at 0° C.
  relative affinity of tieing (ARL), Estrogen: 0

## CC#C[C@]1(O)CC[C@H]2[C@@H]3CCC4=CC(=O)C(C)(C)CC4=C3[C@@H](c3ccc(N(C)C)cc3)C[C@@]21C [Example 1, 2,2-dimethyl-11β-(4-dimethylaminophenyl)-17α-(prop-1-ynyl)-Δ^4,9-estradiene-17β-ol-3-one]
[1]; incubation 4 H at 0° C.
  relative affinity of tieing (ARL), Glucocorticoid: 97
[1]; incubation 24 H at 0° C.
  relative affinity of tieing (ARL), Glucocorticoid: 38
[2]; 5 × 10^-8 M dexamethasone + test product 10^-6 M
  % inhibition of effect of Dexamethasone (symbol): * (A dose of 10^-6 M inhibited the effect of dexamethasone totally)
[2]; [5]
  inhibition at 0.1 µM: 18%
  inhibition at 0.01 µM: 8%
[2]
  opposition to the effect of dexamethasone on tritiated uridine incorporation (in words): opposed this effect
[3]; incubation 2 H at 0° C.
  relative affinity of tieing (ARL), Estrogen: < 0,1
[3]; incubation 5 H (25° C.)
  relative affinity of tieing (ARL), Estrogen: < 0,1
